The values below are quoted from earlier work in PMC10363405 (Methods in molecular biology (Clifton, N.J.), 2022).

The structures appear in SMILES notation.

The target in this data set is β-tubulin. As to the kind of experiment: fluorescence enhancement titration with crosslinked microtubules. Type of data set: binding, Bos taurus.

The term Kd denotes a measure of binding affinity in units of concentration. As for `CC(=O)OC1C(=O)C2(C)C(OC(=O)CCNC(=O)c3cc4cc(F)c(O)c(F)c4oc3=O)CC3OCC3(OC(C)=O)C2C(OC(=O)c2ccccc2)C2(O)CC(OC(=O)C(O)C(NC(=O)c3ccccc3)c3ccccc3)C(C)=C1C2(C)C` (stereo not drawn) [PB-β-Ala-Taxol], the Kd is 0.063 ± 0.008 µM.
